Type: physicochemical
Experimental: The stability of more than 95% pure polymorph A on exposure to air and heat is compared to the stability of amorphous pentamycin (containing more than 95% pure pentamycin) as follows:
Amorphous pentamycin is prepared by precipitation from a solution of more than 95% pure pentamycin in dimethylsulfoxide by adding acetonitrile, followed by filtering and drying the precipitate.
More than 95% pure polymorph A of pentamycin is prepared by crystallization from a solution of more than 95% pure pentamycin in dimethylsulfoxide by adding ethyl acetate, followed by filtering and drying the precipitate.
A sample of the thus obtained amorphous pentamycin and a sample of the thus obtained polymorph A are incubated in an open vessel about six days at 60° C. and additionally 2 weeks at 40° C. The process of degradation is monitored by HPLC, measuring the decrease of the purity relative to the inital state at zero time (t0) set on 100%. After the incubation the amount of degradation of amorphous pentamycin is 11% whereas the amount of degradation of polymorph A is only 1%.

Compound | amount of degradation (decrease of the purity relative to the initial state at zero time t0 set on 100%) [%]
CCCCC[C@@H](O)[C@H]1C(=O)O[C@H](C)[C@@H](O)/C=C/C=C/C=C/C=C/C=C(\C)[C@@H](O)[C@H](O)[C@H](O)C[C@H](O)C[C@H](O)C[C@H](O)C[C@H](O)C[C@@H]1O [amorphous pentamycin, pentamycin] | 11
CCCCC[C@@H](O)[C@H]1C(=O)O[C@H](C)[C@@H](O)/C=C/C=C/C=C/C=C/C=C(\C)[C@@H](O)[C@H](O)[C@H](O)C[C@H](O)C[C@H](O)C[C@H](O)C[C@H](O)C[C@@H]1O [polymorph A, pentamycin] | 1

From patent publication US9090582B2, “Highly pure pentamycin” (Biolotus Biotechnology AG, priority 2008, dated 2015)
